Values of other authors, collected in patent US7709454B2, “Methods and compositions for inhibiting tumorigenesis” (New York University, priority 1997, dated 2010).

How the values were obtained:
[1] = cell type not given; cited from earlier work
[2] = tested on: MMTV-v-H-RAS transgenic mice/Mammary, salivary Carcinoma; details: cited from earlier work
[3] = tested on: MMTV-N-RAS^N transgenic Mice/lymphoid and mammary tumors; details: 40 mg/kg/d; cited from earlier work
[4] = tested on: MMTV-TGFa/neu transgenic Mice/mammary tumors; details: 40 mg/kg/d; cited from earlier work

CC[C@H](C)[C@@H](CO[C@@H](Cc1ccccc1)C(=O)N[C@@H](CCS(C)(=O)=O)C(=O)OC(C)C)NC[C@@H](N)CS [L-744,832]
IC50 [1]: 1 to 10 µM
tumor mean growth rate in the presence of the Ftase inhibitor ([2]; 10-40 mg/kg/d): −5.4 vs 16.7 mm3/day
tumor response ([2]; mammary and salivary carcinomas in MMTV-v-Ha-Ras mice): induced regression
tumor mean growth rate in the presence of the Ftase inhibitor [3]: −0.7 vs 28.3 mm3/day
tumor mean growth rate in the presence of the Ftase inhibitor [4]: −7.4 vs 19 mm3/day
